The values below come from patent US20220257583A1, “Compositions and Methods for the Treatment of Intracranial Diseases” (Duke University, priority 2019, published 2022).

In assay [1] the target is T1, β-arrestin 2 recruitment to activated β2V2R (Homo sapiens, UniProt P32121).
T1 construct: host or cells: U2OS
Briefly: DiscoveRx β-arrestin 2 recruitment assay (β2V2R, isoproterenol stimulation). In kind it is cell-based. The note with it: 25 minutes pretreatment. How it is done: FIG. 13: The first 40 initial hits from the screening of a structurally diverse, drug-like compound (DDLC) library containing more than 3,500 unique molecules with binding activity against purified β-arrestin 2 were evaluated for β-arrestin 2 recruitment by DiscoveRx assay. DiscoveRx cells expressing chimeric β2-adrenergic receptor (β2AR) with C-terminal tail from vasopressin receptor 2 (β2V2R) that is known to bind β-arrestin 2 very tightly were employed in this assay. The DiscoveRx cells were pretreated with candidate compounds at 50 μM or DMSO (control) for 25 minutes followed by stimulation with isoproterenol (10 nM). Compound B29 inhibits more than 75% of β-arrestin 2 activity (red-dashed rectangle) induced by isoproterenol which is a receptor agonist (red bar graph).
FIG. 14: β-arrestin 2 recruitment to activated β2V2R. Testing B29 further, the DiscoveRx cells were pretreated with compound B29 at 1, 10, 50 μM or DMSO (control) for 25 minutes followed by stimulation with isoproterenol at various concentrations.
FIG. 20 is a graphic representation showing the effect of putative βarr2 binding compounds (21 hits) on βarr2 recruitment to agonist activated GPCR. DiscoveRx-U2OS cells exogenously expressing βarr2 and β2V2R were treated with each putative βarrestin binding compound at 50 μM for 30 min and then stimulated with agonist isoproterenol (10 nM) to induce recruitment of βarr. […]

The next assay concerns S1P1 on T cells. Briefly: S1P1 expression on T cells exposed to compound. The format is cell-based.
For another assay, the system named is intracranial CT2A glioma. Briefly: Survival of mice bearing intracranial CT2A glioma. The format is in vivo. Conditions: IC CT2A mice, monotherapy. How it is done:
FIGS. 6A-6E: Hindering S1P1 internalization abrogates T-cell sequestration in bone marrow. FIG. 6A: Relative sequestration of adoptively transferred CFSE-labeled T-cells within the bone marrow of CT2A IC recipient mice at 2 h (left) or 24 h (right) after transfer. As indicated, transferred cells were splenocytes either from control C57BL/6 donors (control) or from S1P1 stabilized knock-in (S1P1 KI) donors (n=5 recipient mice per group). […] FIG. 6B: T-cell counts in the bone marrow of n=10 intracranial CT2A-bearing wild-type C57BL/6 or n=11 S1P1 KI mice. Counts were assessed at 18 d following tumor implantation and are shown relative to baseline counts inn=6 tumor-naïve control wild-type or n=6 tumor-naïve S1P1 KI mice. Cumulative data from three experiments are depicted in FIG. 6B and FIG. 6C, Intracranial CT2A tumors were harvested from n=6 wild-type C57BL/6 (WT) or n=6 S1P1 KI mice at 18 d following tumor implantation. TILs were assessed by flow cytometry and the number of total T-cells per gram of tumor quantified. FIG. 6D: The frequency of activated effector) (CD44^hiCD62L^lo) T-cells in intracranial CT2A tumors from the same n=6 wild-type C57BL/6 (WT) or n=6 S1P1 KI mice in FIG. 6C was also quantified. […] P values in and were determined by two-tailed, unpaired Student's t-test. Survival in FIG. 6E was assessed by two-tailed, generalized Wilcoxon test. […]

The test system of assay [2] is T-cells in IC CT2A-bearing mice. Briefly: Bone marrow and blood T-cell counts in IC CT2A-bearing mice. The format is in vivo. The note with it: intraperitoneally every 3 days (Days 3-18), counts 18 days after implantation. The text has this: FIGS. 6F-6J: FIG. 6F: Representative flow cytometry plot depicting the frequency of S1P1 on the surface of T-cells in the bone marrow of C57BL/6 mice and S1P1 KI bearing IC CT2A tumor. FIG. 6G: S1P1 KI mice were implanted with IC CT2A tumors and treated with anti (α)-PD-1, 4-1BB agonist, or the combination of both (n=8 per group). FIG. 6H and FIG. 6I: Bone marrow (FIG. 6H) and blood (FIG. 6I) T-cell counts in n=8 control mice and n=8 IC CT2A-bearing mice administered control treatment or G-CSF intraperitoneally every 3 days following tumor implantation (Days 3-18). Counts were assessed 18 days following tumor implantation. FIG. 6J: IC CT2A IC mice were administered G-CSF, 4-1BB agonist, or the combination regimen of both drugs (n=8 per group). […] Data in FIG. 6H and FIG. 6I are shown as mean±s.e.m. P values and were determined by two-tailed, unpaired Student's t-test. Survivals in FIG. 6G and FIG. 6J were assessed by two-tailed generalized Wilcoxon test. P values for overall comparison are depicted. […]
Spleen, thymus, cervical lymph nodes, and long bones of the legs (femur and tibia) were collected at defined and/or humane endpoints, in accordance with protocol. […] Briefly, tissues were processed in RPMI, minced into single cell suspensions, cell-strained, counted, stained with antibodies, and analyzed via flow cytometry. […]

T1 sequence (P32121 whole entry): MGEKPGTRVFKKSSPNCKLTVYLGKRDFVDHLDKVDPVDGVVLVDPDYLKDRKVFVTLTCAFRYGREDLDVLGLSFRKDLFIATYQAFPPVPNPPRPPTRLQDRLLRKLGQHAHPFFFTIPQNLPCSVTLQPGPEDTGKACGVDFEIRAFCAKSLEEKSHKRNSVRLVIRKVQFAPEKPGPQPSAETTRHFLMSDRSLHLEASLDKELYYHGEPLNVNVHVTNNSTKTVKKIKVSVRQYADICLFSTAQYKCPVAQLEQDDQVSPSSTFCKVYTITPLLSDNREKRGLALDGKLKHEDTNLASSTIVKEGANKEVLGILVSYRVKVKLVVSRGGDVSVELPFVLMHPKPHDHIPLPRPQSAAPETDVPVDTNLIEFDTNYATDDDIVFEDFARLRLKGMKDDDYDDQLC

As for `COc1cc(Cc2nccc3cc(OC)c(OC)cc23)c(C(C)=O)cc1OC` [Compound B29, 1-(2-((6,7-dimethoxyisoquinolin-1-yl)methyl)-4,5-dimethoxyphenyl)ethan-1-one], the inhibition – broadly, the change of the read-out against control, counted positive when it falls – at 50 µM in assay [1] (compound 50 μM, isoproterenol 10 nM, read-out: inhibition of β-arrestin 2 activity induced by isoproterenol) is over 75%. The “effect on isoproterenol titration curves of β-arrestin 2 recruitment” value in assay [1] (compound at 1, 10, 50 μM, isoproterenol at various concentrations) was “shifts the potency of agonist rightward and decreases maximal response in a dose dependent fashion”.
For the molecule `CN(C)c1n/c(=N/Cc2ccco2)ss1` [Compound C30, (Z)-3-((furan-2-ylmethyl)imino)-N,N-dimethyl-3H-1,2,4-dithiazol-5-amine], the “S1P1 expression level on T cells” value in the assay with S1P1 on T cells (higher concentrations of compound) was “higher levels of S1P1 expression”. Also, the “ability to inhibit BARR” value in the assay with S1P1 on T cells (initially screened compound, FIG. 12) was “inhibit BARR”.

B1: G-CSF: granulocyte colony-stimulating factor, administered intraperitoneally every 3 days (protein, UniProt P09919 31-207, looked up)
Granulocyte …: TPLGPASSLPQSFLLKCLEQVRKIQGDGAALQEKLVSECATYKLCHPEELVLLGHSLGIPWAPLSSCPSQALQLAGCLSQLHSGLFLYQGLLQALEGISPELGPTLDTLQLDVADFATTIWQQMEELGMAPALQPTQGAMPAFASAFQRRAGGVLVASHLQSFLEVSYRVLRHLAQP
As for B1, in the assay on intracranial CT2A glioma, the survival entry was “did not to consistently impact survival”. In assay [2], the “T-cell lymphopenia (blood T-cell counts)” value was “reversed” and the “bone marrow T-cell counts” value is on record as “decreased”.
